Reference: the supplement of paper PMC8960247
Counter-ions that a name gives are not always drawn. ± gives the standard error.

Assays:
[1] = tested on: 621-102 (TSC2-deficient); experiment: relative viability vs DMSO; higher = less cytotoxic; settings: serum: 10% FBS, 72 h
[2] = tested on: 621-103 (TSC2-rescued); experiment: as above; settings: serum: 10% FBS, 72 h
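Also: immortalized renal angiomyolipoma cells stably carrying empty vector or TSC2, dosed in 384-well plates in DMEM, viability normalized to vehicle-treated wells within each plate.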

SMILES | relative viability ([1]; 0.0001 µM) [%] | relative viability ([1]; 0.001 µM) [%] | relative viability ([1]; 0.01 µM) [%] | relative viability ([1]; 0.1 µM) [%] | relative viability ([1]; 1 µM) [%] | relative viability ([1]; 10 µM) [%] | relative viability ([2]; 0.0001 µM) [%] | relative viability ([2]; 0.001 µM) [%] | relative viability ([2]; 0.01 µM) [%] | relative viability ([2]; 0.1 µM) [%] | relative viability ([2]; 1 µM) [%] | relative viability ([2]; 10 µM) [%]
C[C@]12C=CC(=O)N[C@@H]1CC[C@@H]1[C@@H]2CC[C@]2(C)[C@@H](C(=O)Nc3cc(C(F)(F)F)ccc3C(F)(F)F)CC[C@@H]12 [Dutasteride (Avodart)] | 118 ± 1.5 | 116 ± 1.9 | 115 ± 2.4 | 96.4 ± 1.7 | 107.7 ± 0.56 | 98.5 ± 2.3 | 104 ± 1.4 | 105 ± 2.2 | 100.7 ± 0.37 | 101 ± 1.4 | 101 ± 1.5 | 94.61 ± 0.46
Cc1cc(Nc2cc(N3CCN(C)CC3)nc(/C=C/c3ccccc3)n2)n[nH]1 [ENMD-2076] | 112 ± 2.8 | 98.5 ± 1.7 | 103.4 ± 0.19 | 98.213 ± 0.069 | 81.1 ± 2.8 | 34.56 ± 0.15 | 100.4 ± 0.78 | 100.9 ± 0.97 | 104 ± 1.5 | 102 ± 2.1 | 73 ± 2.3 | 12.7 ± 0.4
COc1cc2c(cc1Cc1cccc(Cl)c1F)c(=O)c(C(=O)O)cn2[C@H](CO)C(C)C [Elvitegravir] | 96.63 ± 0.78 | 107.1 ± 0.31 | 105 ± 3.3 | 106 ± 1.4 | 110 ± 3 | 99.7 ± 3.7 | 101 ± 1.1 | 102 ± 1.9 | 98.96 ± 0.48 | 98.96 ± 0.9 | 101.1 ± 1 | 99.17 ± 0.59
Nc1nc(=O)n([C@@H]2CS[C@H](CO)O2)cc1F [Emtricitabine] | 92.1 ± 2.5 | 90.4 ± 1.3 | 95.4 ± 1 | 88.7 ± 4.1 | 92 ± 9.3 | 83.5 ± 6.5 | 106 ± 1.1 | 110 ± 6.2 | 101 ± 4.7 | 105 ± 2.6 | 100 ± 3.7 | 98.4 ± 1.5
CCOC(=O)[C@H](CCc1ccccc1)N[C@@H](C)C(=O)N1CCC[C@H]1C(=O)O [Enalapril Maleate] | 103 ± 1.4 | 92.6 ± 3.4 | 101.9 ± 0.59 | 101 ± 3.5 | 105 ± 4.1 | 100.5 ± 0.3 | 99 ± 1.8 | 100 ± 2.9 | 89.7 ± 10 | 100 ± 1.5 | 99.6 ± 0.35 | 103 ± 2.4
C[C@H](N[C@@H](CCc1ccccc1)C(=O)O)C(=O)N1CCC[C@H]1C(=O)O [Enalaprilat] | 97.6 ± 3.3 | 100 ± 4.3 | 96.26 ± 0.64 | 98.48 ± 0.16 | 95.91 ± 0.29 | 101.3 ± 0.23 | 101 ± 4 | 101.1 ± 0.31 | 95.29 ± 0.25 | 98.36 ± 0.18 | 101 ± 2.5 | 96.34 ± 0.17
Cn1cc(C2=C(c3cn(C4CCN(Cc5ccccn5)CC4)c4ccccc34)C(=O)NC2=O)c2ccccc21 [Enzastaurin] | 110 ± 3 | 114 ± 1.6 | 107 ± 1.7 | 104 ± 2.2 | 106 ± 4.1 | 98.6 ± 6.9 | 104.1 ± 0.6 | 99.64 ± 0.22 | 102 ± 1.3 | 99.2 ± 0.55 | 102.1 ± 0.61 | 95.6 ± 1.9
CNC[C@H](O)c1ccc(O)c(O)c1 [Epinephrine bitartrate] | 119 ± 1.4 | 118 ± 1.5 | 105 ± 4 | 101 ± 2.4 | 103 ± 1.3 | 100 ± 1.5 | 102 ± 2.1 | 95.4 ± 4.3 | 93.4 ± 4.4 | 92.99 ± 0.3 | 96 ± 1.2 | 95.31 ± 0.25
C/C(=C\c1csc(C)n1)[C@@H]1C[C@@H]2O[C@@H]2CCC[C@H](C)[C@H](O)[C@@H](C)C(=O)C(C)(C)[C@@H](O)CC(=O)O1 [Epothilone A] | 63.5 ± 3 | 47 ± 4 | 31.1 ± 0.38 | 27.3 ± 1.1 | 30.4 ± 0.53 | 34.2 ± 0.53 | 87.3 ± 1.9 | 59.1 ± 2.4 | 44 ± 1.4 | 30.8 ± 0.67 | 26.7 ± 0.62 | 50.59 ± 0.26
C/C(=C\c1csc(C)n1)[C@@H]1C[C@@H]2O[C@]2(C)CCC[C@H](C)[C@H](O)[C@@H](C)C(=O)C(C)(C)[C@@H](O)CC(=O)O1 [Epothilone B (EPIO906)] | 29.4 ± 1.8 | 29.3 ± 0.11 | 27.3 ± 1.2 | 32.2 ± 1.6 | 35.2 ± 2.2 | 37.6 ± 1.2 | 56.73 ± 0.32 | 48.3 ± 0.41 | 38.2 ± 1 | 35.28 ± 0.27 | 48.9 ± 1.2 | 60.1 ± 1.1
C#Cc1cccc(Nc2ncnc3cc(OCCOC)c(OCCOC)cc23)c1 [Erlotinib] | 106.7 ± 1 | 102 ± 3.1 | 107.7 ± 1 | 103 ± 1.4 | 97.8 ± 1.9 | 96.7 ± 3.3 | 99.81 ± 0.92 | 101 ± 1.1 | 104 ± 2.2 | 101.3 ± 0.39 | 101 ± 2.7 | 96.6 ± 3.3
COc1ccc2[nH]c([S@@+]([O-])Cc3ncc(C)c(OC)c3C)nc2c1 [Esomeprazole sodium (Nexium I.V.)] | 93.6 ± 1.3 | 107 ± 6.9 | 107 ± 3.4 | 97.9 ± 3.1 | 91.1 ± 1 | 88.632 ± 0.085 | 111 ± 0.41 | 99.3 ± 0.93 | 101.7 ± 0.45 | 112 ± 4 | 102 ± 2.5 | 86.24 ± 0.28
COc1cc([C@@H]2c3cc4c(cc3[C@@H](O[C@@H]3O[C@@H]5CO[C@@H](C)O[C@H]5[C@H](O)[C@H]3O)[C@H]3COC(=O)[C@H]23)OCO4)cc(OC)c1O [Etoposide (Etopophos)] | 109.8 ± 0.44 | 108.1 ± 0.98 | 114 ± 3.7 | 104 ± 2.5 | 81.3 ± 5.1 | 54.6 ± 2.9 | 99.77 ± 0.28 | 98.19 ± 0.16 | 99.6 ± 1.2 | 98.7 ± 1 | 91.5 ± 2.3 | 55.6 ± 0.8
